pKi: −log10 of the molar value. Like-named read-outs stand apart in the source and are kept apart here.
What was measured:
[1] = Prodrug stability in freshly withdrawn porcine intestinal fluid; assay type: in vitro ADME; settings: for Prodrug remaining at 3 h: porcine intestinal fluid pH 6.8, 37° C., in % (unit assumed)
Excerpt: Many of the peptidases in the intestinal lumen may not be present in the USP simulated intestinal fluid preparations previously described. […] The prodrugs evaluated were selected on the basis of adequate pharmacokinetics (see Example 8).

[2] = Pharmacokinetics in rat hepatic portal and tail veins after oral administration; assay type: in vivo
Description: Rats were surgically prepared under isofluorane anaesthesia by attaching a silicon catheter to the portal vein then exteriorising it at the nape of the neck with a blood collection port attached.
At each sampling time serial point blood samples (approximately 0.2 mL) were taken simultaneously from the lateral tail vein cannula and the hepatic portal cannula. After collection of the final blood sample each animal was killed by cervical dislocation. Blood samples were collected at 15, 30 minutes and 1, 2, 4, 8 and 24 hours post dose.
Pharmacokinetic parameters in portal and systemic plasma were derived by non-compartmental analysis (linear/logarithmic trapezoidal) using WinNonlin (Version 4.1) software.

[3] = target: T1, human α-2A adrenoceptor (Homo sapiens, UniProt P08913); experiment: α-2A adrenoceptor binding assay ([3H] RX821002 competition, recombinant CHO cells); settings: [3H] RX821002 (1 nM)
T1 construct: expressed in transfected cells; host or cells: CHO cells
T1 sequence (P08913 1-465): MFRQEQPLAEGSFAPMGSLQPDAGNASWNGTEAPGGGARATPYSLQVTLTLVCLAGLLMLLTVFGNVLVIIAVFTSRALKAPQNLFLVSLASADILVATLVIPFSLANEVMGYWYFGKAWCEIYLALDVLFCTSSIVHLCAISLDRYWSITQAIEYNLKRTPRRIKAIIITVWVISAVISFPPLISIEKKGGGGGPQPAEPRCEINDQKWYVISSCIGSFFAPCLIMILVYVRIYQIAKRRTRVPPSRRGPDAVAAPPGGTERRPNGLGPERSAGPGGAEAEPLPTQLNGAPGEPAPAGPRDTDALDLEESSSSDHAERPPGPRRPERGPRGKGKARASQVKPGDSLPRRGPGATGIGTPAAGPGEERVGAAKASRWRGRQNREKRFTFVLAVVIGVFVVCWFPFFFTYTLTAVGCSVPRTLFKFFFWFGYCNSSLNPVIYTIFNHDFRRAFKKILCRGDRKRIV
Description: The activation of this receptor is responsible for its intended therapeutic effect.
The binding assay methodology employed in this study followed that described by Langin et al. (Eur. J. Pharmacol. 167:95-104, 1989) and used human recombinant CHO cells expressing α-2 adrenoceptors. The competitive binding ligand was [3H] RX821002 (1 nM) which has a high affinity for the alpha-2A subtype.

[4] = Prodrug stability in simulated gastric fluid; settings: 37° C., pH 1.1, HPLC
Description: (§1) The remaining concentrations of the prodrugs were then assayed by H PLC.

[5] = Prodrug stability in simulated intestinal fluid; settings: 37° C., pH 6.8, HPLC
Description: as §1

[6] = Comparative pharmacokinetic screening study in the monkey (relative Cmax of guanfacine); settings: oral gavage, monkey screening study
Description: Blood samples were taken on 4 sampling occasions at various times up to 6 hours after administration and submitted to analysis for the parent drug and prodrug using a qualified LC-MS-MS assay.

[7] = test system: gastrointestinal transit of a charcoal meal in the rat; experiment: Charcoal propulsion test (gut motility) in rat; assay type: in vivo; settings: oral
Description: The effect of a drug on gut motility can be studied by means of the charcoal propulsion test.
The method used was based on that described by Takemori et al. (J. Pharmacol. Exp. Ther. 169:39, 1969). Test treatments were administered orally 60 minutes prior to an oral dose of a 10% suspension of charcoal in 2.5% gum Arabic (2 ml/kg). Twenty minutes after dosing with charcoal, the rats were sacrificed and the entire gastrointestinal tract was removed quickly and carefully. The distance that the charcoal meal had traveled toward the caecum was measured and expressed as a percentage of the total gut length.

[8] = Comparative bioavailability study of guanfacine in monkeys given guanfacine or prodrug conjugates; assay type: in vivo, cynomolgus monkey; settings: oral, monkey
Description: The characteristics of the test animals are set out in Table 13.
The following pharmacokinetic parameters derived from the plasma analytical data were determined using Win Nonlin;

[9] = Comparative bioavailability study in monkeys in the fasted or fed state; assay type: in vivo, cynomolgus monkey; settings: for Cmax: male, cynomolgus monkey, plasma, po, 0.5 mg/kg, read-out: mean Cmax prodrug
Description: Five male cynomolgus monkeys were used. Food was withdrawn from animals in fasted groups from the evening of the day prior to dosing until approximately 4 hours after dosing.
The formulations were prepared on the day of dosing and administered orally as soon as practicable up to a maximum of 2 hours after formulation.
Blood samples (0.5 mL) were collected from all animals pre-dose and at 0.5, 1, 2, 3, 4, 6, 8 10, 12, 16 and 24 hours after dosing.
Following processing, the resultant plasma was frozen and analysed by a qualified method. Pharmacokinetic evaluation was performed using a validated pharmacokinetic software package.

[10] = hepatic portal vein plasma, po, 1 mg/kg, read-out: Hepatic portal vein Prodrug AUC
[11] = hepatic portal vein plasma, po, 1 mg/kg, read-out: Hepatic portal vein Prodrug Cmax
[12] = tail vein (systemic) plasma, po, 1 mg/kg, read-out: Tail vein Prodrug AUC
[13] = tail vein (systemic) plasma, po, 1 mg/kg, read-out: Tail vein Prodrug Cmax
[14] = Study 2, dose 0.1 mg/kg guanfacine free base equivalents
[15] = Study 2, dose 0.3 mg/kg guanfacine free base equivalents
[16] = Study 2, dose 0.5 mg/kg guanfacine free base equivalents
[17] = Study 1, dose 0.1 mg/kg guanfacine free base equivalents
[18] = Study 1, dose 0.3 mg/kg guanfacine free base equivalents
[19] = Study 1, dose 1 mg/kg guanfacine free base equivalents
[20] = Study 1, dose 3 mg/kg guanfacine free base equivalents
[21] = Study 1, dose 5 mg/kg guanfacine free base equivalents
[22] = Fasted, 0.5 mg/kg guanfacine equivalent dose, oral

Structure (SMILES)	stability in porcine intestinal fluid (in words) [1]	Prodrug remaining at 3 h [1]	AUC [2, 10] [ng·h/mL]	Cmax [2, 11] [ng/mL]	AUC [2, 12] [ng·h/mL]	Cmax [2, 13] [ng/mL]	pKi [3]	% prodrug remaining following incubation for 1 h in simulated gastric fluid pH 1.1 [4] [%]	% prodrug remaining following incubation for 2 h in simulated intestinal fluid pH 6.8 [5] [%]	prodrug levels in plasma (in words) [6]	comparative systemic exposure to guanfacine vs guanfacine at an equimolar dose (in words) ([2]; oral)	% change in GI transit vs vehicle [7, 14] [%]	% change in GI transit vs vehicle [7, 15] [%]	% change in GI transit vs vehicle [7, 16] [%]	plasma guanfacine profile (in words) [8]	% change in GI transit vs vehicle [7, 17]	% change in GI transit vs vehicle [7, 18] [%]	% change in GI transit vs vehicle [7, 19] [%]	% change in GI transit vs vehicle [7, 20] [%]	% change in GI transit vs vehicle [7, 21] [%]	also measured
C[C@@H](N)C(=O)N[C@@H](CCC(=O)NC(=N)NC(=O)Cc1c(Cl)cccc1Cl)C(=O)O [Compound 41, Guanfacine ((S)-γ-Glutamate-(R)-Alanine) Amide]	high stability	89.70 ± 3.60	43.5	31.9	8	6.14	5.77	70	83	detectable prodrug levels in plasma	–	–	–	–	–	–	–	–	–	–	–
CNCC(=O)N[C@@H](COC(=O)NC(=N)NC(=O)Cc1c(Cl)cccc1Cl)C(=O)O [Compound 61, Guanfacine ((S)-Serine-Sarcosine) Carbamate]	intermediate stability	66.86 ± 2.10	51.8	43.4	5.09	7.07	5.00	92	96	detectable prodrug levels in plasma	similar	−8	−25	−31	–	–	–	–	–	–	–
CC(C)[C@@H](N)C(=O)N[C@@H](CCC(=O)NC(=N)NC(=O)Cc1c(Cl)cccc1Cl)C(=O)O [Compound 5, Guanfacine ((S)-γ-Glutamate-(R)-Valine) Amide]	–	91.2	61	41.5	4.6	3.5	5.80	86	89	–	–	–	–	–	sustained guanfacine concentrations	−6%	−22	−48	−44	−42	% change in GI transit vs vehicle ([7]; Study 1, dose 1.7 mg/kg guanfacine free base equivalents): −50%
CC(C)[C@H](N)C(=O)NCCC(=O)NC(=N)NC(=O)Cc1c(Cl)cccc1Cl [Compound 2, Guanfacine (β-Alanine-(S)-Valine) Amide]	intermediate stability	77.8	19.2	46.4	2.67	4.2	5.92	75	89	detectable prodrug levels in plasma	–	–	–	–	–	+3%	−30	−42	−42	−42	mean Cmax prodrug [9, 22]: BLQ; Cmax [9]: 2.15 ng/mL
CNCC(=O)N[C@H](C(=O)O)[C@@H](C)OC(=O)NC(=N)NC(=O)Cc1c(Cl)cccc1Cl [Compound 63, Guanfacine ((R,S)-Threonine-Sarcosine) Carbamate]	high stability	95.04 ± 9.25	66.5	23.7	20.2	9.37	–	86	99	detectable prodrug levels in plasma	similar	0	−13	−49	–	–	–	–	–	–	–
CC(C)[C@H](NC(=O)CCCC(=O)NC(=N)NC(=O)Cc1c(Cl)cccc1Cl)C(=O)O [Compound 1, Guanfacine (Glutaryl-(S)-Valine) Amide]	high stability	100.6	–	–	–	–	5.14	80	92	–	–	–	–	–	sustained guanfacine concentrations	−9%	−6	−45	−50	−53	Cmax [9, 22]: 9.23 ng/mL; Cmax ([9]; Fed, 0.5 mg/kg guanfacine equivalent dose, oral): 7.19 ng/mL; AUC ([2]; hepatic portal vein plasma, oral, 0.5 mg/kg (footnote *), read-out: Hepatic portal vein Prodrug AUC): 159 ng·h/mL; Cmax ([2]; hepatic portal vein plasma, oral, 0.5 mg/kg (footnote *), read-out: Hepatic portal vein Prodrug Cmax): 56.3 ng/mL; AUC ([2]; tail vein (systemic) plasma, oral, 0.5 mg/kg (footnote *), read-out: Tail vein Prodrug AUC): 29.6 ng·h/mL; Cmax ([2]; tail vein (systemic) plasma, oral, 0.5 mg/kg (footnote *), read-out: Tail vein Prodrug Cmax): 8.26 ng/mL
